Where two headings read alike, the source gives them in different places. Where no end group is shown, it is not given here.
Assays:
[1] = cited from earlier work
Text: However, acidification can be appl ...

[2] = Influence of cooling on ice and P100 protease inhibitor cocktail on peptide stability; conditions: HPLC-MS/MS, measured in triple; for Influence of the P100 tube (protease inhibitor cocktail) on stability: P100 vs K2EDTA, immediately, 30 and 60 min on ice or at room temperature; for Effect of cooling with ice on stability: spiked on K2EDTA and P100 plasma, measured immediately and after 30 and 60 min on ice or at room temperature
Method: The samples were measured immediately, and after 30 and 60 min on ice or at room temperature (Fig. 6). All samples were measured in triple.
The samples were measured immediately, or after 30 and 60 min on ice or at room temperature.

[3] = Stability of spiked synthetic peptides in plasma according to the preanalytical condition (immediately vs 60 min at room temperature); conditions: HPLC-MS/MS; for Degradation after one hour at room temperature: spiked synthetic peptide; for Appearance of apelin-pyr-13 after spiking synthetic apelin-13: after 60 min; for Degradation at the immediate measurement in non-acidified conditions: non-acidified plasma, measured immediately after spiking
Text: We aimed to minimalize degradation after sampling with a preanalytical protocol summarized in Fig. 3, including immediate cooling and rapid processing of samples. […] However, acidification can be applied only after separation by centrifugation of whole blood into a plasma and a cell compartment, because acidification of whole blood would lead to hemolysis and coagulation, rendering the blood samples unsuitable for further measurements. Therefore, we used protease inhibitor cocktail-containing K2EDTA-coated P100 blood tubes and a mechanical plasma separator (366422 BD Biosciences, San Jose, CA, USA)[19]. The aim of the protease inhibitor cocktail is to inactivate proteolytic degradation by enzymes present in whole blood; the mechanical separator prevent contact with cell-bound enzymes, both theoretically limiting enzymatic degradation of apelin during the several minutes between blood collection in the tube and completed plasma separation and acidification.
Figure 3 Overview of preanalytical conditions. Samples were immediately cooled on ice and processed within 1 h. Both standard K2EDTA tubes and P100 prechilled tubes containing a protease inhibitor cocktail and mechanical separator were used. The standard K2EDTA was centrifuged for 10 min 1300 × g at 4 °C, while the P100 tube was centrifuged for 20 min 2500 × g at 4 °C, according to the manufacturers’ instructions. After separation, plasma was untreated or acidified to either pH 2.5 or 4.5 by adding the plasma to low protein-binding tubes pre-filled with either phosphoric acid or formic acid. The plasma samples were stored directly at − 20 °C and transferred within 4 h at − 80 °C.
Spiking of individual peptides was performed on plasma collected in K2EDTA tubes, stored either non-acidified, or acidified to pH 4.5 or pH 2.5 and on plasma collected in P100 tubes, stored either non-acidified, or acidified to pH 4.5 and pH 2.5. The samples were measured both immediately and after 60 min at room temperature, each sample was measured 3 times.

[4] = test system: Furin (PCSK3); conditions: cited from earlier work
Text: (§1) Table 1 Enzymatic processing of apelin. | column: Conversion

[5] = test system: Prolyl carboxypeptidase; conditions: cited from earlier work
Text: as §1

[6] = test system: G-protein-coupled apelin receptor (AR); set-up: method as in PMID 23872001, PMID 18272843, PMID 29357134; conditions: cited from earlier work
Text: Apelin is expressed as a 77–amino acid precursor, and the C-terminal 17 residues are completely conserved in mammalians. Enzymatic processing (overviewed in Table 1) results in several active C-terminal fragments named apelin-n, specifying that a given isoform has “n” amino acids, all sharing the same 12 C-terminal residues that contain the receptor-binding site (Fig. 1).

[7] = test system: Kallikrein; conditions: cited from earlier work
Text: as §1

[8] = previously described plasma acidification step to pH 4.5
[9] = K2EDTA plasma acidified to pH 2.5, immediately and after 60 min at room temperature, measured 3 times
[10] = K2EDTA plasma acidified to pH 4.5, immediately and after 60 min at room temperature, measured 3 times
[11] = K2EDTA plasma, non-acidified, measured immediately and after 60 min at room temperature, each sample measured 3 times
[12] = P100 (protease inhibitor cocktail) plasma, non-acidified, immediately and after 60 min at room temperature, measured 3 times
[13] = P100 plasma acidified to pH 2.5, immediately and after 60 min at room temperature, measured 3 times
[14] = P100 plasma acidified to pH 4.5, immediately and after 60 min at room temperature, measured 3 times

## Apelin-36: synthetic apelin isoform of 36 amino acids, purchased from CPC Scientific / Phoenix Pharmaceuticals (LVQPRGSRNGPGPWQGGRRKFRRQRPRLSHKGPMPF; Apelin-36; UniProt Q9ULZ1 42-77, looked up)
[1]; [8]
  Stability in plasma acidified to pH 4.5: provide stability
[2]
  Influence of the P100 tube (protease inhibitor cocktail) on stability: negative influence
  Effect of cooling with ice on stability: cooling with ice increases stability
[3]; [9]
  Degradation after one hour at room temperature: limited degradation
[3]; [10]
  Degradation after one hour at room temperature: limited degradation
[3]; [11]
  Degradation after one hour at room temperature: limited degradation
[3]; [12]
  Degradation after one hour at room temperature: higher degradation
[3]; [13]
  Degradation after one hour at room temperature: limited degradation
[3]; [14]
  Degradation after one hour at room temperature: higher degradation
[4]
  Conversion by furin (PCSK3): directly to apelin 13
[5]; similar to ACE-2 effect
  Cleavage by prolyl carboxypeptidase: Cleaves apelin 36, 17 and pyr-apelin 13
[6]
  Activation of the apelin receptor (AR): can activate the AR

## CSCC[C@H](NC(=O)[C@@H]1CCCN1C(=O)CNC(=O)[C@H](CCCCN)NC(=O)[C@H](Cc1cnc[nH]1)NC(=O)[C@H](CO)NC(=O)[C@H](CC(C)C)NC(=O)[C@H](CCCNC(=N)N)NC(=O)[C@@H]1CCCN1C(=O)[C@H](CCCNC(=N)N)NC(=O)[C@H](CCC(N)=O)NC(=O)[C@H](CCCNC(=N)N)NC(=O)[C@H](CCCNC(=N)N)NC(=O)[C@H](Cc1ccccc1)NC(=O)[C@@H](N)CCCCN)C(=O)N1CCC[C@H]1C(=O)N[C@@H](Cc1ccccc1)C(=O)O [Apelin-17]
[1]; pH 4.5
  Stability in plasma acidified to pH 4.5: provide stability
[5]
  Cleavage by prolyl carboxypeptidase: Cleaves apelin 36, 17 and pyr-apelin 13
[7]
  Cleavage by kallikrein: Cleaves the 3N-terminal amino acids of apelin-17
pH 2.5
  Degradation after one hour at room temperature: minor degradation
pH 4.5
  Degradation after one hour at room temperature: minor degradation

## CSCC[C@H](NC(=O)[C@@H]1CCCN1C(=O)CNC(=O)[C@H](CCCCN)NC(=O)[C@H](Cc1cnc[nH]1)NC(=O)[C@H](CO)NC(=O)[C@H](CC(C)C)NC(=O)[C@H](CCCNC(=N)N)NC(=O)[C@@H]1CCCN1C(=O)[C@H](CCCNC(=N)N)NC(=O)[C@@H](N)CCC(N)=O)C(=O)N1CCC[C@H]1C(=O)N[C@@H](Cc1ccccc1)C(=O)O [Apelin-13]
[1]; [8]
  Stability in plasma acidified to pH 4.5: provide stability
[2]
  Influence of the P100 tube (protease inhibitor cocktail) on stability: small added value
  Effect of cooling with ice on stability: cooling with ice increases stability
[3]; [9]
  Degradation after one hour at room temperature: minor degradation
[3]; [10]
  Degradation after one hour at room temperature: minor degradation
[3]; K2EDTA plasma non-acidified
  Appearance of apelin-pyr-13 after spiking synthetic apelin-13: minimal
[3]; K2EDTA plasma pH 2.5
  Appearance of apelin-pyr-13 after spiking synthetic apelin-13: ~25%
[3]; K2EDTA plasma pH 4.5
  Appearance of apelin-pyr-13 after spiking synthetic apelin-13: ~3 ×
[3]; [11]
  Degradation after one hour at room temperature: rapid degradation
[3]; [12]
  Degradation after one hour at room temperature: rapid degradation
[3]; [13]
  Degradation after one hour at room temperature: minor degradation
[3]; [14]
  Degradation after one hour at room temperature: minor degradation
[3]
  Degradation at the immediate measurement in non-acidified conditions: immediate degradation

## NGPGPWQGGRRKFRRQRPRLSHKGPMPF [Apelin-28]
[3]; K2EDTA plasma non-acidified vs pH 4.5 vs pH 2.5, 60 min at room temperature
  Influence of pH on stability in K2EDTA plasma: slightly better stability in K2EDTA plasma at pH 4.5 and pH 2.5 than in non-acidified plasma

## CSCC[C@H](NC(=O)[C@@H]1CCCN1C(=O)CNC(=O)[C@H](CCCCN)NC(=O)[C@H](Cc1c[nH]cn1)NC(=O)[C@H](CO)NC(=O)[C@H](CC(C)C)NC(=O)[C@H](CCCNC(=N)N)NC(=O)[C@@H]1CCCN1C(=O)[C@@H](N)CCCNC(=N)N)C(=O)N1CCC[C@H]1C(=O)N[C@@H](Cc1ccccc1)C(=O)O [Apelin-12]
[2]
  Effect of cooling with ice on stability: cooling with ice increases stability
[3]
  Degradation at the immediate measurement in non-acidified conditions: immediate degradation
[3]; plasma non-acidified, pH 4.5 or pH 2.5, 60 min at room temperature
  Storage pH giving the best stability in plasma: most stable at pH 2.5
